In patent publication US20170166561A1, “QUINUCLIDINE COMPOUNDS FOR MODULATING ALPHA7-NICOTINIC ACETYLCHOLINE RECEPTOR ACTIVITY” (Alpharmagen, LLC, priority 2014, published 2017):
Structures can show the parent of a compound that is named as a salt. Where two headings read alike, the source gives them in different places.

What was measured:
[1] = Human plasma stability (Protocols 1 and 2); type: in vitro ADME; settings: human
Experimental: Example B6: Human Plasma Stability
Studies were carried out in human plasma. All plasma was obtained from Bioreclamation and collected on sodium heparin. Plasma was adjusted to pH 7.4. A DMSO stock was first prepared for the test compound. An aliquot of the DMSO solution was dosed into 1 mL of plasma, which had been pre-warmed to 37° C., at a final test compound concentration of 1 μM. The vials were kept in a benchtop Thermomixer® for the duration of the experiment. Aliquots (100 μL) were taken at each time point (0, 15, 30, 60, and 120 minutes) and added to 96-well plates which had been pre-filled with 300 μL of acetonitrile. Samples were stored at 4° C. until the end of the experiment. After the final time point was sampled, the plate was mixed and then centrifuged at 3,000 rpm for 10 minutes. Aliquots of the supernatant were removed, diluted 1:1 into distilled water, and analyzed by LC-MS/MS. The peak area response ratio to internal standard (PARR) of the compound at 15, 30, 60 and 120 minutes was compared to the PARR at time 0 to determine the percent of test compound remaining at each time point. Half-lives were calculated using GraphPad software, fitting to a single-phase exponential decay equation.
Studies were carried out in plasma. Plasma was prepared under approval of IRB and IACUC on sodium heparin. The pH of plasma was monitored and used within the range of pH 7.4 to pH 8.0. DMSO stocks were prepared for the test compounds. Aliquots of the DMSO solutions were diluted to 0.05 mM by 0.05 mM Sodium phosphate buffer with 0.5% BSA. Then 10 μL of 0.05 mM solutions were dosed into 90 μL of plasma in duplicates (n=2), which had been pre-warmed to 37° C., at a final test compound concentration of 5 μM. The plates were kept in a 37° C. water bath for the duration of the experiment. At each time point (0, 5, 15, 30, 45, 60, and 120 minutes), 400 μL of acetonitrile was added into corresponding wells. After the final time point was sampled, the plates were shaken at the vibrator (IKA, MTS 2/4) for 10 min (600 rpm/min) and then centrifuged at 5594 g for 15 min (Thermo Multifuge×3R). Aliquots of the supernatant were removed, diluted 1:1 into distilled water, and analyzed by LC-MS/MS. The peak area response ratio to internal standard (PARR) of the compounds at 5, 15, 30, 45, 60, and 120 minutes was compared to the PARR at time 0 to determine the percent of test compound remaining at each time point. Half-lives were calculated using Excel software, fitting to a single-phase exponential decay equation.

[2] = target: T1, Human α7 NAChR (Homo sapiens, UniProt P36544); test: Electrophysiology screen at 1 μM in Xenopus laevis oocytes; type: cell-based; settings: test compound 1 μM; Imax = maximal current produced by 3 mM ACh; holding voltage −70 mV
T1 construct: TriLink (mRNA); Ecocyte Bioscience (oocytes); host or cells: Xenopus laevis oocytes injected with mRNA
T1 sequence (P36544 23-502): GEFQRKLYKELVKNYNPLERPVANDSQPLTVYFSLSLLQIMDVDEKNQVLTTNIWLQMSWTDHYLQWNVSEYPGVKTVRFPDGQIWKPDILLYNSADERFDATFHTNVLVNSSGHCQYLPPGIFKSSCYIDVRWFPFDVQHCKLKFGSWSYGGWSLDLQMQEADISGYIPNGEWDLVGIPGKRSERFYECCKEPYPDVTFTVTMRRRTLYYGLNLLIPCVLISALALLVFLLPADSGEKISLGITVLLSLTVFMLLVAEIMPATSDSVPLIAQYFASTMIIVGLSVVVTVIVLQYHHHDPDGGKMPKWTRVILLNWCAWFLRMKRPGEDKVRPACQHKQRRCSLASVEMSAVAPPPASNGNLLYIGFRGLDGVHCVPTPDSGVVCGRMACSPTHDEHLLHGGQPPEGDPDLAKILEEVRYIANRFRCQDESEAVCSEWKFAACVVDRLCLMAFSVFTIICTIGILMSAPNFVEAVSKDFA
Experimental: Example B2: Electrophysiology Screen at 1 μM in Xenopus Laevis Oocytes
Human α7 NAChR mRNA Preparation:
Human α7 NAChR plasmid was prepared by GeneWiz from accession NM_000746.5. Human α7 NAChR mRNA was prepared by TriLink at a concentration near 1 μg/μL. The human α7 NAChR mRNA was diluted in sterile water to a working concentration near 10 ng/μL.
Xenopus laevis Oocyte Injection and Maintenance:
Oocytes were obtained from Xenopus laevis frogs and treated with collagenase by Ecocyte Bioscience. Oocytes were injected with the working concentration of α7 NAChR mRNA at a volume of 50 nL for a total of approximately 0.5 ng of α7 NAChR mRNA. Oocytes were maintained in Barth's solution at a temperature of 16° C. The Barth's solution was replaced daily.
Electrophysiology Measurement:
Two-electrode voltage clamp recordings were made 3-14 days following mRNA injections at a holding voltage of −70 mV. […]
In all oocyte recordings, drug and wash solutions were applied using a custom-designed microcapillary “linear array” which allows rapid application of agonists. Currents were recorded on a PC-based computer (PClamp, Molecular Devices, Sunnyvale, Calif.). […]
Stocks of test compounds were prepared in DMSO. […] The test solution was perfused onto the oocyte until a peak current was recorded. […]

[3] = target: rat brain nicotinic receptor (α7 NAChR, α-Bungarotoxin binding site) (Rattus norvegicus, UniProt Q05941)
Sequence of rat brain nicotinic receptor (α7 NAChR, α-Bungarotoxin binding site) (Q05941 23-502): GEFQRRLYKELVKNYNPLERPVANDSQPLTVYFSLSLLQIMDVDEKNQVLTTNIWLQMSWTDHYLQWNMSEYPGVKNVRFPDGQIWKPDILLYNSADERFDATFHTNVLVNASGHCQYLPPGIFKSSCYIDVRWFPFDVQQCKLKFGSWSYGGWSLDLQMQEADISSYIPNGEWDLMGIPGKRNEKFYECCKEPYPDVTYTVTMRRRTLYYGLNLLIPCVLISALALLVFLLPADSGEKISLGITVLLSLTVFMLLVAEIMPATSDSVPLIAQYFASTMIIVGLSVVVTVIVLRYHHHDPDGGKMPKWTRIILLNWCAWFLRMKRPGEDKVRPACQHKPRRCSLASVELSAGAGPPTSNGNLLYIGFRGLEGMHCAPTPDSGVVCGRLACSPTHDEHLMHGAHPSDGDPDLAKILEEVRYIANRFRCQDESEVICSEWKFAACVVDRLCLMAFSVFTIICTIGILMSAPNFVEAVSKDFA

[4] = Metabolic stability assay in human liver microsomes (HLM; Protocols 1 and 2); type: in vitro ADME; settings: 1 μM
Experimental: Example B4: Metabolic Stability Assays
Studies were carried out in human and rat liver microsomes (“HLM” and “RLM,” respectively). Human and rat liver microsomes were purchased from BD Gentest. DMSO stocks were prepared for the test compounds. Aliquots of the DMSO solutions were diluted to 0.5 mM by acetonitrile, then further diluted by liver microsomes/buffer to 1.5 μM. 30 μL of 1.5 μM solutions were mixed with 15 μL of 6 mM NADPH, which had been pre-warmed to 37° C., at a final test compound concentration of 1 μM. The plates were kept in a 37° C. water bath for the duration of the experiment. At each time point (0, 5, 15, 30, 45 minutes), 135 μL of acetonitrile was added into corresponding wells. After the final time point was sampled, the plates were shaken at a vibrator (IKA, MTS 2/4) for 10 min (600 rpm/min) and then centrifuged at 5594 g for 15 min (Thermo Multifuge×3R). Aliquots of the supernatant were removed, diluted 1:1 into distilled water, and analyzed by LC-MS/MS. The peak area response ratio to internal standard (PARR) of the compounds at 5, 15, 30, 45 minutes was compared to the PARR at time 0 to determine the percent of test compound remaining at each time point. Half-lives were calculated using Excel software, fitting to a single-phase exponential decay equation.
Studies were carried out in human and rat liver microsomes. Buffer solutions were prepared as follows: Buffer A: 1.0 L of 0.1 M monobasic Potassium Phosphate buffer containing 1.0 mM EDTA; Buffer B: 1.0 L of 0.1 M Dibasic Potassium Phosphate buffer containing 1.0 mM EDTA; Buffer C: 0.1 M Potassium Phosphate buffer, 1.0 mM EDTA, pH 7.4 by titrating 700 mL of buffer B with buffer A while monitoring with a pH meter.
Reference compound (Ketanserin) and test compound spiking solutions were prepared as follows: 500 μM spiking solution: add 10 μL of 10 mM DMSO stock solution into 190 μL ACN; 1.5 μM spiking solution in microsomes (0.75 mg/mL): add 1.5 μL of 500 μM spiking solution and 18.75 μL of 20 mg/mL liver microsomes into 479.75 μL of Buffer C.
NADPH stock solution (6 mM) was prepared by dissolving NADPH into buffer C.
Assay procedure: 30 μL of 1.5 μM spiking solution containing 0.75 mg/mL microsomes solution was dispensed to the wells designated for 45 min, 30 min, 15 min, 5 min, and 0 min. The plate was pre-incubated at 37° C. for 10 minutes. 15 μL of NADPH stock solution (6 mM) was added to the wells designated as Time 45, and the timer was started. At 30 min, 15 min, and 5 min, 15 μL NADPH stock solution (6 mM) was added to the wells, respectively. At the end of incubation (0 min), 135 tit of ACN containing IS was added to all the wells. Then 15 tit of NADPH stock solution (6 mM) was added to the wells designated as Time 0. After quenching, the reaction mixtures were centrifuged at 3220 g for 10 min. Following centrifugation, 50 μL of the supernatant was transferred from each well into a 96-well sample plate containing 50 μL of ultra-pure water (Millipore) for LC/MS analysis. The peak area response (PARR) ratio to internal standard of the compounds at 5, 15, 30, and 45 minutes was compared to the PARR at time 0 to determine the percent of test compound remaining at each time point. Half-lives were calculated using Excel software, fitting to a single-phase exponential decay equation.

[5] = Protocol 2, plasma pH 7.4 to 8.0, 5 μM, 37° C., read-out: T1/2
[6] = Protocol 1, human liver microsomes, NADPH, 37° C.

Structure (SMILES)	half-life at 5 μM [1, 5]	half-life at 5 μM ([1]; plasma, pH 7.4)	HLM ([4]; human, microsomes)	HLM [4, 6]	further results
Cl.O=C(OCC12CCN(CC1)CC2)c1c[nH]c2cccc(C(F)(F)F)c12 [Compound 80, Quinuclidin-4-ylmethyl 4-(trifluoromethyl)-1H-indole-3-carboxylate hydrochloride]	10.9 h				I/Imax [2]: 0.032
COc1cc2c(C(=O)OCC34CCN(CC3)CC4)c[nH]c2cc1C.Cl [Compound 79, quinuclidin-4-ylmethyl 5-methoxy-6-methyl-1H-indole-3-carboxylate hydrochloride]	2.71 h				I/Imax [2]: 0.259; IC50 [3]: 159 nM; Ki [3]: 137 nM
Cc1cc(O)cc2[nH]cc(C(=O)OCC34CCN(CC3)CC4)c12 [Compound 83, quinuclidin-4-ylmethyl 6-hydroxy-4-methyl-1H-indole-3-carboxylate]		6.48 h	2.7 mL/min/kg		
Cc1cc(F)cc2[nH]cc(C(=O)OCC34CCN(CC3)CC4)c12 [Compound 44, quinuclidin-4-ylmethyl 6-fluoro-4-methyl-1H-indole-3-carboxylate]			3.5 mL/min/kg		T1/2 ([1]; plasma, pH 7.4): ∞
COc1ccc2c(C(=O)OCC34CCN(CC3)CC4)c[nH]c2c1 [Compound 10, quinuclidin-4-ylmethyl 6-methoxy-1H-indole-3-carboxylate]					IC50 [3]: 321 nM; Ki [3]: 279 nM
Cl.O=C(OCC12CCN(CC1)CC2)c1c[nH]c2cc(O)c(F)cc12 [Compound 59, Quinuclidin-4-ylmethyl 5-fluoro-6-hydroxy-1H-indole-3-carboxylate hydrochloride]	2.27 h			0 mL/min/kg	
Cc1ccc2[nH]cc(C(=O)OCC34CCN(CC3)CC4)c2c1C [Compound 70, quinuclidin-4-ylmethyl 4,5-dimethyl-1H-indole-3-carboxylate]		4.16 h	0 mL/min/kg		
COc1cc2c(C(=O)OCC34CCN(CC3)CC4)c[nH]c2cc1Cl [Compound 69, quinuclidin-4-ylmethyl 6-chloro 5-methoxy-1H-indole-3-carboxylate, hydrochloride]		6.93 h	8.8 mL/min/kg		
COc1cc2c(C(=O)OCC34CCN(CC3)CC4)c[nH]c2cc1F [Compound 57, quinuclidin-4-ylmethyl 6-fluoro-5-methoxy-1H-indole-3-carboxylate]	5.47 h			0 mL/min/kg	
COc1cc2[nH]cc(C(=O)OCC34CCN(CC3)CC4)c2cc1OC [Compound 87, quinuclidin-4-ylmethyl 5,6-dimethoxy-1H-indole-3-carboxylate]	2.41 h			0.5 mL/min/kg	
